Series [1] in a line: Solubility in gastric juice or intestinal juice model fluid (precipitation method using DMSO). It is filed as physicochemical. As to conditions: room temperature. In a few lines: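 Dissolved amount (μg/mL) quantified by UV of filtrate versus pre-made calibration curves. Precipitation approach: DMSO solutions spiked into pH 1.2 (JP 1st fluid) or pH 6.8 (JP 2nd fluid) medium, shaken at room temperature for 24 h before insolubles were filtered off.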

Series [2] has as its system lipoprotein lipase (LPL) gene. Briefly: LPL mRNA elevating action (RT-PCR quantification of LPL mRNA in C2Cl2 cells). It is filed as cell-based, mouse. As to conditions: Mus musculus, 24 h, compound 10 μM, ratio relative to the amount of LPL mRNA in cells with DMSO only, read-out: Rate of increase in LPL mRNA. An outline of the steps:
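Read-out is LPL mRNA relative to vehicle (DMSO = 1), measured by reverse transcription and 20-cycle real-time PCR. Cells were the mouse striated-muscle line C2Cl2, treated 24 h with 10 μM compound in DMEM containing 10% FBS.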

Setting [3] is: pH 1.2, simulated gastric fluid, kinetic from dmso stock, 1st fluid for Disintegration Test of Japanese Pharmacopoeia (pH: 1.2), read-out: Solubility (μg/mL) 1st fluid.
[4] abbreviates: pH 6.8, kinetic from dmso stock, 2nd fluid for Disintegration Test of Japanese Pharmacopoeia (pH: 6.8), read-out: Solubility (μg/mL) 2nd fluid.

In brackets after ≈: the same amount, converted by molar mass. Read-outs that look alike come from different tables or passages of the source. Bounds are passed on as bounds.

For `COc1cc(-c2[nH]c(C3CCC(F)(F)CC3)nc2Br)ccc1OCc1ccc(C(F)(F)F)cn1` [Example 198], the melting point (usually the temperature, or range, at which the solid turns liquid) was 158 to 165 °C. For the same molecule, the solubility at 24 h in series [1] (setting [3]) was over 109 µg/mL. In series [1] (setting [4]), the solubility at 24 h was found to be 17.4 µg/mL (≈ 31.8 µM). Also, the fold induction at 10 µM in series [2] stood at 6.36.

For `COc1c(OCc2ccc(C(F)(F)F)nc2)ccc(-c2[nH]c(C3CCC(F)(F)CC3)nc2Br)c1OC` [Example 199], the melting point was in the range of 162 to 165 °C. Further, the solubility at 24 h in series [1] (setting [3]) is over 115 µg/mL. In series [1] (setting [4]), the solubility at 24 h is under 10.2 µg/mL. In series [2], the fold induction at 10 µM is 5.05.

In turn, `COc1c(OCc2ccc(C(F)(F)F)nc2)ccc(-c2[nH]c(C3CCC(F)(F)CC3)nc2Cl)c1OC` [Example 200] yielded a melting point of 148 to 150 °C. The solubility at 24 h in series [1] (setting [3]) was 98.4 µg/mL (≈ 185 µM). Besides, the solubility at 24 h in series [1] (setting [4]) was 2.4 µg/mL (≈ 4.51 µM). For the same molecule, the fold induction at 10 µM in series [2] was 4.73.

Take `COc1cc(-c2[nH]c(C3C4CC5CC(C4)CC3C5)nc2Cl)ccc1OCc1ccc(C(F)(F)F)cn1` (stereo not shown) [Example 201]: the melting point was 238 to 240 °C (dec.). For the same molecule, in series [1] (setting [3]), the solubility at 24 h is 90 µg/mL (≈ 174 µM). Further, the solubility at 24 h in series [1] (setting [4]) amounted to 2.6 µg/mL (≈ 5.02 µM). In series [2], the fold induction at 10 µM is 2.45.

Consider `COc1cc(OCc2ccc(C(F)(F)F)nc2)c(C)cc1-c1[nH]c(-c2ccc(F)nc2)nc1Cl` [Example 202], for which the melting point was 213 to 215 °C (dec.). The solubility at 24 h in series [1] (setting [3]) is 8.8 µg/mL (≈ 17.9 µM). Also, the solubility at 24 h in series [1] (setting [4]) is under 1.8 µg/mL. The fold induction at 10 µM in series [2] worked out at 3.15.

For `COc1cc(-c2[nH]c(C3CCC(F)(F)CC3)nc2Cl)ccc1OCc1ccc(C(F)(F)F)nc1` [Example 203], the melting point was 164 to 167 °C. For the same molecule, the solubility at 24 h in series [1] (setting [3]) is 63.8 µg/mL (≈ 127 µM). Moreover, the solubility at 24 h in series [1] (setting [4]) was under 1.8 µg/mL. The fold induction at 10 µM in series [2] was found to be 5.47.

`COc1cc(OCc2ccc(C(F)(F)F)nc2)ccc1-c1[nH]c(C2CCC(F)(F)CC2)nc1Cl` [Example 204] came in with a melting point of 122 to 125 °C. For the same molecule, the solubility at 24 h in series [1] (setting [3]) was over 100 µg/mL. Also, the solubility at 24 h in series [1] (setting [4]) is under 8.9 µg/mL. Moreover, the fold induction at 10 µM in series [2] turned out to be 5.07.

As to `COc1c(OCc2ccc(C(F)(F)F)cn2)ccc(-c2[nH]c(C3CCC(F)(F)CC3)nc2Cl)c1OC` [Example 205], the melting point was 175 to 177 °C. The solubility at 24 h in series [1] (setting [3]) was over 106 µg/mL. Besides, the solubility at 24 h in series [1] (setting [4]) is under 9.5 µg/mL. Also, the fold induction at 10 µM in series [2] came out at 5.41.

The molecule `COc1cc(OCc2ncc(C)cc2C)ccc1-c1nc(-c2ccc(F)nc2)[nH]c1Cl` [Example 206] returned a melting point of 109 to 124 °C. Further, the solubility at 24 h in series [1] (setting [3]) was over 88 µg/mL. Moreover, the solubility at 24 h in series [1] (setting [4]) was 7 µg/mL (≈ 15.9 µM). The fold induction at 10 µM in series [2] is 2.75.

`COc1cc(OC(C)c2ccc(C(F)(F)F)cn2)ccc1-c1nc(-c2ccc(F)nc2)[nH]c1Cl` (stereo not shown) [Example 207] yielded a melting point of 166 to 169 °C. In addition, the “Solubility (μg/mL) 1st fluid” value in series [1] (1st fluid for Disintegration Test of Japanese Pharmacopoeia (pH: 1.2), 24 hours) came out at 83.4 µg/mL (≈ 169 µM). In series [1] (setting [4]), the solubility at 24 h was 0.4 µg/mL (≈ 0.812 µM). Also, the fold induction at 10 µM in series [2] turned out to be 2.5.

Take `COc1cc(OCc2ccc(C(F)(F)F)cn2)ccc1-c1[nH]c(-c2ccc(Cl)nc2)nc1I` [Example 208]: the melting point was 204 to 208 °C (dec.). Moreover, the solubility at 24 h in series [1] (setting [3]) was 24.9 µg/mL (≈ 42.4 µM). In addition, the solubility at 24 h in series [1] (setting [4]) was under 0.4 µg/mL. The fold induction at 10 µM in series [2] came to 4.72.

Turning to `COc1cc(-c2[nH]c(C3CCC(F)(F)CC3)nc2Cl)ccc1OCc1ccc(C(F)(F)F)cn1` [Example 209], the melting point fell in the range of 175 to 177 °C. Further, in series [1] (setting [3]), the solubility at 24 h is 99.4 µg/mL (≈ 198 µM). Further, the solubility at 24 h in series [1] (setting [4]) was under 0.4 µg/mL. Also, the fold induction at 10 µM in series [2] amounted to 5.34.

On to `COc1cc(OCc2ccc(C(F)(F)F)cn2)ccc1-c1[nH]c(C2CCC(F)(F)CC2)nc1Cl` [Example 210], for which the melting point lay in the range of 147 to 149 °C. The solubility at 24 h in series [1] (setting [3]) was 95.6 µg/mL (≈ 190 µM). For the same molecule, the solubility at 24 h in series [1] (setting [4]) amounted to 1.5 µg/mL (≈ 2.99 µM). Besides, the fold induction at 10 µM in series [2] was found to be 5.69.

Molecule `COc1cc(OCc2coc(C)n2)ccc1-c1nc(-c2ccc(Cl)nc2)[nH]c1Cl` [Example 211] had a melting point of 136 to 155 °C. In addition, in series [1] (setting [3]), the solubility at 24 h is 84.7 µg/mL (≈ 196 µM). In addition, in series [1] (setting [4]), the solubility at 24 h amounted to 2.2 µg/mL (≈ 5.1 µM). In addition, in series [2], the fold induction at 10 µM came out at 2.55.

With `COc1cc(-c2nc(-c3ccc(F)nc3)[nH]c2Cl)ccc1OCc1ncccc1F` [Example 212], the melting point lay within 161 to 163 °C. The solubility at 24 h in series [1] (setting [3]) is 76.9 µg/mL (≈ 179 µM). Besides, in series [1] (setting [4]), the solubility at 24 h came to 0.5 µg/mL (≈ 1.17 µM). The fold induction at 10 µM in series [2] was found to be 2.22.

Molecule `COc1cc(OCn2cccn2)ccc1-c1nc(-c2ccc(Cl)nc2)[nH]c1Cl` [Example 213] returned a melting point of 166 to 169 °C. In addition, the solubility at 24 h in series [1] (setting [3]) was 79.7 µg/mL (≈ 191 µM). Further, the solubility at 24 h in series [1] (setting [4]) worked out at 2.1 µg/mL (≈ 5.04 µM). Moreover, the fold induction at 10 µM in series [2] worked out at 2.04.

In the case of `COc1cc(OCc2ncccc2C(F)(F)F)ccc1-c1nc(-c2ccc(F)nc2)[nH]c1Cl` [Example 214], the melting point lay in the range of 143 to 146 °C. Further, the solubility at 24 h in series [1] (setting [3]) is over 96 µg/mL. Also, the solubility at 24 h in series [1] (setting [4]) was determined as 7.1 µg/mL (≈ 14.8 µM). The fold induction at 10 µM in series [2] was determined as 3.66.

On to `COc1cc(OCc2cnc(C)cn2)ccc1-c1nc(-c2ccc(F)nc2)[nH]c1Cl` [Example 216], for which the melting point was 208 to 210 °C (dec.). For the same molecule, the solubility at 24 h in series [1] (setting [3]) was 84.3 µg/mL (≈ 198 µM). In addition, in series [1] (setting [4]), the solubility at 24 h was determined as 1.8 µg/mL (≈ 4.23 µM). Further, the fold induction at 10 µM in series [2] came out at 2.62.

Regarding `COCCOc1cc(OCc2ccc(C(F)(F)F)cn2)ccc1-c1nc(-c2ccc(Cl)nc2)[nH]c1Cl` [Example 218], the melting point was 170 to 172 °C. Further, in series [1] (setting [3]), the solubility at 24 h is 0.4 µg/mL (≈ 0.742 µM). For the same molecule, the solubility at 24 h in series [1] (setting [4]) was under 9.6 µg/mL. Also, the fold induction at 10 µM in series [2] came to 1.21.

For `COc1cc(-c2nc(-c3ccc(Cl)nc3)[nH]c2Cl)ccc1OCc1cccc(F)n1` [Example 220], the melting point is 198 to 201 °C. For the same molecule, the solubility at 24 h in series [1] (setting [3]) is under 0.3 µg/mL. Also, in series [1] (setting [4]), the solubility at 24 h was under 7.9 µg/mL. In series [2], the fold induction at 10 µM was 2.69.

As to `COc1cc(OCc2ncccc2C(F)(F)F)ccc1-c1nc(-c2ccc(Cl)nc2)[nH]c1Cl` [Example 221], the melting point fell in the range of 182 to 184 °C. In addition, the solubility at 24 h in series [1] (setting [3]) was 66.5 µg/mL (≈ 134 µM). The solubility at 24 h in series [1] (setting [4]) was under 8.8 µg/mL. The fold induction at 10 µM in series [2] is 3.47.

Molecule `COc1cc(OCc2ccc(C(F)(F)F)cn2)ccc1-c1nc(-c2ccc(Cl)nc2)[nH]c1Br` [Example 225] displayed a melting point of 186 to 188 °C. For the same molecule, in series [1] (setting [3]), the solubility at 24 h was 5.5 µg/mL (≈ 10.2 µM). In series [1] (setting [4]), the solubility at 24 h was determined as 0.9 µg/mL (≈ 1.67 µM). In addition, the fold induction at 10 µM in series [2] is 2.8.

The molecule `COc1cc(OCc2cnccn2)ccc1-c1nc(-c2ccc(Cl)nc2)[nH]c1Cl` [Example 230] showed a melting point of 172 to 174 °C. Further, the solubility at 24 h in series [1] (setting [3]) is 7.2 µg/mL (≈ 16.8 µM). Also, the solubility at 24 h in series [1] (setting [4]) is under 0.3 µg/mL. Also, the fold induction at 10 µM in series [2] amounted to 1.58.

The molecule `COc1cc(OCc2ccc(C(F)(F)F)cn2)ccc1-c1nc(-c2ccc(F)nc2)[nH]c1Cl` [Example 233] returned a melting point of 190 to 193 °C. In series [1] (setting [3]), the solubility at 24 h is 9.9 µg/mL (≈ 20.7 µM). Moreover, the solubility at 24 h in series [1] (setting [4]) came to 1.1 µg/mL (≈ 2.3 µM). In addition, in series [2], the fold induction at 10 µM was found to be 3.87.

On to `COc1cc(-c2nc(C3CCCCC3)[nH]c2Cl)ccc1OCc1ccc(C(F)(F)F)cn1` [Example 234], for which the melting point lay within 171 to 175 °C. In series [1] (setting [3]), the solubility at 24 h was 92.8 µg/mL (≈ 199 µM). In series [1] (setting [4]), the solubility at 24 h is under 0.3 µg/mL. Moreover, the fold induction at 10 µM in series [2] turned out to be 3.06.

(Values after patent US10570117B2, “Phenylimidazole compound” (Otsuka Pharmaceutical Factory, Inc., priority 2015, dated 2020).)
